These results are taken from patent US7674819B2 (Warner-Lambert Company LLC, priority 2005, dated 2010).

pIC50: −log10 of the molar value.

The first assay addresses T1, androgen receptor (Homo sapiens, UniProt P10275).
T1 sequence (P10275 1-920 Q868H): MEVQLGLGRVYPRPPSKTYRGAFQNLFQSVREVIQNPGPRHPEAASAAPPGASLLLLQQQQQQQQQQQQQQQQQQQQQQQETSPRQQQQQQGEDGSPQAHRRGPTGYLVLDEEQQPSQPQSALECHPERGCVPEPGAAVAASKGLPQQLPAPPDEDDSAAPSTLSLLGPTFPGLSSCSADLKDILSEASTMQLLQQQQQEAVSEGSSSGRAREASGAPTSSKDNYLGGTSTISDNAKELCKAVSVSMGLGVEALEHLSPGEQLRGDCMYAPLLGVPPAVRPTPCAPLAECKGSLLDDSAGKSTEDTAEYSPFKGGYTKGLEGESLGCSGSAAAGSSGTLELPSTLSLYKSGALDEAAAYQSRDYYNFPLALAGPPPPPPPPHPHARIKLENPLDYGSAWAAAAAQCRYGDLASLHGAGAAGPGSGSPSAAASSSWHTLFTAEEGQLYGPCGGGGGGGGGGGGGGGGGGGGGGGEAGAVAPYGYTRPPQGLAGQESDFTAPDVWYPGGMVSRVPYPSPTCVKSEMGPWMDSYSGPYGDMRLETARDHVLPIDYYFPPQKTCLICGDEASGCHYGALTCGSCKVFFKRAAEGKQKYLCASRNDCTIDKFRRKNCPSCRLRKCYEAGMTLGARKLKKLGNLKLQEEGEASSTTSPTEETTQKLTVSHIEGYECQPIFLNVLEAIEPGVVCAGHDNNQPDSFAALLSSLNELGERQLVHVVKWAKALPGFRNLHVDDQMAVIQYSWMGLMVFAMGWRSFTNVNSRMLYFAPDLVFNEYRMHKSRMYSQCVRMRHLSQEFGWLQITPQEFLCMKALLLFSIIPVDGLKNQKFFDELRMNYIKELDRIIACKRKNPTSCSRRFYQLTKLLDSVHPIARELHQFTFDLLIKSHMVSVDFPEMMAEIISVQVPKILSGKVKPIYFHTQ
The assay can be described thus: AR Antagonist Cell Assay (MDA-MB453-MMTV clone 54-19, luciferase reporter). It counts as cell-based. To be noted: inhibition of induction by DHT (final concentration at 100 μM), 17 hr; compound 0.32-1000 nM; mean of multiple tests. The essentials:
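MDA-MB453 breast tumour cells stably carrying an ARE-containing MMTV promoter driving firefly luciferase, plated overnight at 37° C in charcoal-treated serum medium. DHT added (final […]) and incubated 17 hr at 37° C. Luminescence read after adding luciferase buffer; values are means of multiple tests.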
Background: A reporter such as luciferase makes a cellular process visible.
The molecule `CCCCN1CC(C)(C)C(Oc2ccc(C#N)c(C(F)(F)F)c2)C1=O` (single isomer, unassigned; (+)) [Example 20, (+)-4-(1-Butyl-4,4-dimethyl-2-oxo-pyrrolidin-3-yloxy)-2-trifluoromethyl-benzonitrile] showed a pIC50 of 7.89.

Turning to `CCCS(=O)(=O)N1CC(C)(C)C(Oc2ccc(C#N)c(C(F)(F)F)c2)C1=O` (single isomer, unassigned; (+)) [Example 82, (+)-4-[4,4-Dimethyl-2-oxo-1-(propane-1-sulfonyl)-pyrrolidin-3-yloxy]-2-trifluoromethyl-benzonitrile], the negative-log IC50 (pIC50) is 7.25.

Consider `CC[C@H](C)N1CC(C)(C)[C@@H](Oc2ccc(C#N)c(C(F)(F)F)c2)C1=O` [Example 1, (3R,S)-(+)-4-(1-sec-Butyl-4,4-dimethyl-2-oxo-pyrrolidin-3-yloxy)-2-trifluoromethyl-benzonitrile], for which the pIC50 is 7.48.

In the case of `CCCN1CC(C)(C)C(Oc2ccc(C#N)c(C(F)(F)F)c2)C1=O` (stereo not shown) [Example 4, 4-(4,4-dimethyl-2-oxo-1-propyl-pyrrolidin-3-yloxy)-2-trifluoromethyl-benzonitrile], the pIC50 was 7.59.

Molecule `CCCN1CC(C)(C)[C@@H](Oc2ccc(C#N)c(C(F)(F)F)c2)C1=O` [Example 4A, (+)-4-(1-Propyl-4,4-dimethyl-2-oxo-pyrrolidin-3-yloxy)-2-trifluoromethyl-benzonitrile (E2)] gave a negative logarithm of the IC50 (pIC50) of 7.04.

Staying with this assay, now noted: inhibition of induction by DHT (final concentration at 100 μM), 17 hr; compound 0.32-1000 nM; mean of multiple tests; read-out: IC50.
Take `CC1(C)CN(S(C)(=O)=O)C(=O)C1Oc1ccc(C#N)c(C(F)(F)F)c1` (stereo not shown) [Example 81, 4-(1-methanesulfonyl-4,4-dimethyl-2-oxo-pyrrolidin-3-yloxy)-2-trifluoromethyl-benzonitrile]: the pIC50 was 6.70.

`CC(c1ccccc1)N1CC(C)(C)C(Oc2ccc(C#N)cc2Cl)C1=O` (stereo not shown) [Example 109]: the pIC50 was 7.85.

As a reminder, the pIC50 is the negative decadic logarithm of the IC50, by convention in mol/L.
